Test results: US6060481A, “Method for improving insulin sensitivity using an adenosine receptor antagonist” (priority 1999, dated 2000)

Key:
[1] = target: T1, human A2B adenosine receptor (Homo sapiens, UniProt P29275); assay: Binding constants against cloned and expressed human adenosine receptor subtypes (A2B); settings: read-out: Binding constant (KD) A2B
T1 construct: expressed in transfected cells
T1 sequence (P29275 1-332): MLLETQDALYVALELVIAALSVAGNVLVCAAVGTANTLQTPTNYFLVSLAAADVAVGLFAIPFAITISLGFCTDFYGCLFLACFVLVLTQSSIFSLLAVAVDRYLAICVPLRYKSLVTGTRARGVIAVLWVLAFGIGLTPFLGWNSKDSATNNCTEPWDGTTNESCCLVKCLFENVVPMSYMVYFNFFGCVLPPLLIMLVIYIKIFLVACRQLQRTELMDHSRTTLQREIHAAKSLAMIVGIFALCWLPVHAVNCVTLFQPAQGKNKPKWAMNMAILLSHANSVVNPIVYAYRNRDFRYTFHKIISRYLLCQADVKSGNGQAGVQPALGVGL
Description: Any A2B adenosine receptor antagonist can be used according to the present methods. Methods for determining whether a compound is an A2B adenosine receptor agonist or antagonist involve quantitating its binding affinity to membranes which are known to contain the A2B subtype. The methods for determining whether compounds are specific ligands of different adenosine receptor subtypes will be known by practitioners of the art. […] References cited therein provide more complete descriptions of the procedures used.
In these previous methods, a radioactive compound (DPCPX) known to be highly specific for A1 adenosine receptors and whose KD is published was incubated with isolated fat cell membranes. A1 adenosine receptors are abundant in fat cells and DPCPX's binding to fat cell membranes occurs due to those receptors. […] Human cells which express large amounts of human A2B adenosine receptors are not readily available. Therefore, in order to determine the KD of BWA1433 for the A2B adenosine receptor the cDNA of human A2B adenosine receptor was used to overexpress the A2B adenosine receptor in a mammalian cell line.

[2] = Basal postabsorptive glucose kinetics; format: in vivo, Zucker rats; settings: for Glucose Concentration / Glucose MCR / Glucose Ra: basal postabsorptive, treated 1 wk
Description: In this example, 6-8 week old lean and obese female animals were used. Each group received either vehicle or vehicle plus 1,3-dipropyl-8-(p-acrylic)phenylxanthine (BWA1433) (12 mg/kg every 12 h) for one week prior to the start of the experimental protocol, as described by Xu, et al., Am. […] The vehicle in this case was 10 mg/ml methyl cellulose in H2 O. The final dose of BWA1433 or vehicle was administered approximately 1 h prior to the start of the experimental protocol.
On the day prior to the start of the experimental protocol, animals were anesthetized with an intramuscular injection of ketamine and xylazine (90 and 9 mg/kg body weight, respectively), and sterile surgery was performed to implant catheters in the carotid artery and jugular vein according to the methods taught by Lang et al., Endocrinology, 130: 43-52 (1992). After surgery, animals were housed in individual cages and provided water ad libitum. Animals were fasted overnight.
The following morning, a primed, constant intravenous infusion of [3-^3 H]glucose (high-performance liquid chromatography purified; DuPont-New England Nuclear, Boston, Mass.) was initiated to determine basal glucose kinetics. A 7-μCi bolus injection of labeled glucose was administered followed by a continuous infusion at a rate of 0.083 μCi/min for the next 2 h. Arterial blood samples were collected at 100 and 120 min (0.3 ml each) after the start of the tracer infusion. Blood was collected in heparinized syringes, centrifuged, and the plasma glucose concentration and glucose specific activity were determined on each sample.
Rates of whole body glucose appearance (Ra) and disappearance (Rd) are calculated using the steady-state equations of Steele, Ann. […] The glucose metabolic clearance rate (MCR) is calculated by dividing the glucose Rd by the prevailing glucose concentration.

[3] = tested on: whole body glucose uptake; assay: Euglycemic hyperinsulinemic clamp, whole body glucose disposal and IMGU; format: in vivo, Zucker rats
Description: In this example, 6-8 week old lean and obese female animals were used. Each group received either vehicle or vehicle plus 1,3-dipropyl-8-(p-acrylic)phenylxanthine (BWA1433) (12 mg/kg every 12 h) for one week prior to the start of the experimental protocol, as described by Xu, et al., Am. J. Physiol., 274 (Endocrinol. Metab. 37): E271-E279 (1988). The vehicle in this case was 10 mg/ml methyl cellulose in H2 O. The final dose of BWA1433 or vehicle was administered approximately 1 h prior to the start of the experimental protocol.
After samples were obtained for basal metabolic determinations, a euglycemic hyperinsulinemic clamp was performed. Regular human insulin (Eli Lilly, Indianapolis, Ind.) was infused intravenously at a rate of 100 mU·min^-1 ·kg^-1 for 3 h. This infusion rate has been previously determined to result in steady-state plasma insulin concentrations of approximately 5,000 uU/ml, as reported in Lang, et al., Endocrinology, 130:43-52 (1996); Lang, Am. J. Physiol., 263 (Endocrinol. Metab. 26): E703-E711 (1992); and Lang, et al., Metabolism, 39:1096-1107 (1990). […] Tritiated glucose was not infused during the hyperinsulinemic clamp, because preliminary studies indicate that this insulin infusion rate completely suppresses endogenous glucose appearance in both obese and lean animals.
(§1) During the hyperinsulinemic clamp, blood glucose concentrations were determined at 10-min intervals using the YSI glucose analyzer (Yellow Springs, Ohio). Glucose specific activity was determined on neutralized supernatants of deproteinized plasma as taught by Lang, Am. J. Physiol, 263 (Endocrinol. Metab. 26): E703-D711 (1992). Tissue samples (600-900 mg wet wt) were immersed in ice-cold 0.5 N PCA, homogenized, and centrifuged. The concentration of phosphorylated 2-DG in tissues was calculated as the difference between total ^14 C-radioactivity of the neutral extract and the ^14 C-radioactivity remaining after Somogyi treatment as described in detail by Lang CH, Dobrescu C, and Meszaros K., Metabolism 39:1096-1107 (1990).
(§2) Rates of whole body glucose appearance (Ra) and disappearance (Rd) are calculated using the steady-state equations of Steele, Ann. NY Acad. Sci., 82:420-430 (1959). The glucose metabolic clearance rate (MCR) is calculated by dividing the glucose Rd by the prevailing glucose concentration. Since the prevailing insulin levels during the hyperinsulinemic clamp completely suppress endogenous glucose production, the rate of whole body glucose disposal equals the exogenous glucose infusion rate. The increment in insulin-stimulated glucose uptake (IMGU) for each animals is calculated by subtracting the basal endogenous glucose Ra from the measured rate of glucose disposal determined during the last 40 min of the clamp. In vivo glucose uptake for each tissue examined is calculated based on the accumulation of phosphorylated 2-DG by a respective tissue, the integrated 2-DG:glucose ratio in the plasma during the 40-min labeling period, and the lumped constant as described by Lang, Endocrinology, 128:645-653 (1991).

[4] = tested on: glucose uptake by individual tissues; assay: In vivo tissue glucose uptake with 14C 2-deoxyglucose during clamp; design: species or system Zucker rats; settings: for Decrease in glucose uptake by adipose tissue: epididymal fat, normalized to wet weight
Description: In vivo glucose uptake by individual tissues was determined using [^14 C]-labeled 2-deoxyglucose (2-DG), as described previously in, for example, the Lang references cited above. Tissue-specific glucose uptake was determined between 140 and 180 min after the start of the euglycemic hyperinsulinemic clamp. A tracer amount of 2-DG (8 μCi/rat; Amersham, Arlington Heights, Ill.) was injected intravenously, and tissues obtained 40 min later. Prior to tissue collection, serial arterial blood samples (0.2 ml) were withdrawn into heparinized syringes, plasma deproteinized with perchloric acid and ^14 C-radioactivity determined. Thereafter, animals were anesthetized with sodium pentobarbital, exsanguinated, and selected tissues were excised to determine the intracellular accumulation of phosphorylated 2-DG.
as §1, §2

[5] = obese rats, one week treatment, clamp

CCCn1c(=O)c2[nH]c(-c3ccc(C=CC(=O)O)cc3)nc2n(CCC)c1=O [BWA1433, 1,3-dipropyl-8-(p-acrylic)phenylxanthine]
Kd [1]: 60 nM
Alterations in any parameter of glucose metabolism ([2]; basal conditions, either group (lean, obese)): did not produce detectable alterations
Glucose Concentration ([2]; lean rats): 5.1 ± 0.2 mM
Glucose MCR ([2]; lean rats): 7.1 ± 0.8 ml · min^-1 .multidot
Glucose Ra ([2]; lean rats): 36.8 ± 2.9 μmol^-1 · min .multid
Glucose Concentration ([2]; obese rats): 4.5 ± 0.2 mM
Glucose MCR ([2]; obese rats): 8.3 ± 0.8 ml · min^-1 .multidot
Glucose Ra ([2]; obese rats): 37.5 ± 4.8 μmol^-1 · min .multid
Change in IMGU ([3]; lean Zucker rats): No change
Decrease in whole body glucose disposal ([3]; lean animals, hyperinsulinemic clamp): 16%
Average plasma glucose concentration during final hour of clamp ([3]; lean rats): 5.4 ± 0.1 mM
Average plasma glucose concentration during final hour of clamp ([3]; obese rats): 5.5 ± 0.1 mM
Increase in IMGU compared to vehicle-treated obese animals ([3]; obese rats): more than 6 fold
Increase in rate of whole body glucose uptake compared to untreated obese rats ([3]; obese rats, hyperinsulinemic clamp): 88%
Whole body glucose uptake rate lower than in lean control animals ([3]; treated obese animals versus lean control): approximately 50%
Glucose uptake under hyperinsulinemic conditions in heart ([4]; lean animals): unaffected
Glucose uptake under hyperinsulinemic conditions in liver ([4]; lean animals): unaffected
Decrease in glucose uptake by gastrocnemius ([4]; lean rats): 16%
Decrease in glucose uptake by soleus ([4]; lean rats): 12%
Decrease in glucose uptake by adipose tissue ([4]; lean rats): 48%
Change in glucose uptake in heart ([4]; obese rats): no significant change
Change in glucose uptake in liver ([4]; obese rats): no significant change
Decrease in glucose uptake by adipose tissue ([4]; obese rats): 54%
Increase in glucose uptake in gastrocnemius compared to vehicle-treated obese rats [4, 5]: 44%
Increase in glucose uptake in soleus compared to vehicle-treated obese rats [4, 5]: 47%
Reduction in glucose uptake by fat ([4]; on the basis of intracellular aqueous volume, both groups (lean, obese)): approximately 50%
